In patent US4216324A, “1-Difluoromethyl-6,7-methylenedioxy-1,4-dihyd ro-4-oxo-3-quinolinecarboxylic acid” (E. I. Du Pont de Nemours and Company, priority 1978, dated 1980):
Values after ≈ are worked out from the molar mass of the structure shown. Where two headings read alike, the source gives them in different places.

Experiments:
Sal typhosa = assay: In vitro minimum inhibitory concentration (MIC), tube dilution test; assay type: cell-based; details: read-out: Minimal Inhibitory Test Conens. (MIC)
Procedure: A. In vitro: mimimum inhibitory concentration (MIC)
The compound was tested in a standard bacteriological tube dilution test for MIC for a variety of bacteria. Stock cultures of the bacteria listed in Table 1 were grown in bacterial culture media at 37° C. overnight and diluted in culture tubes to a previously determined concentration proper for the test. The compound was added to result in final concentrations of 10, 2, 0.4 and 0.08 μg/ml. These were incubated for 18 hours at 37° C. and then observed to determine if growth of bacteria had occurred. The lowest concentration of the compound that inhibited bacterial growth in the MIC.
*brain-heart infusion broth, 20hour incubation at 37° C.

Escherichia coli = Escherichia coli (mouse infections); assay type: in vivo; details: female white mice, oral, at infection and again 4 hours after, 72 hours, Reed-Muench, read-out: ED50 (dose effective to save 50% of the mice)
Procedure: 1. Escherichia coli (mouse infections)
(§1) Female white mice weighing approximately 20 grams were infected by injecting a sufficient number of E. coli cells intraperitoneally to cause 85-100% fatalities within 3 days after infection. Groups of 12 such infected mice were dosed orally by intubation with the compound suspended in water to equal 40, 20, 10 and 5 mg/kg at the time of infection and again 4 hours after infection time. […] The dose effective to save 50% of the mice (ED50) was calculated by the Reed-Muench method (Reed, L. J. Muench, H. A Single Method of Estimating 50% Endpoints, Am. J. Hygiene 27, p. 493-497 (1938)).

Staphylococcus aureus = Staphylococcus aureus (mouse infections); assay type: in vivo; details: female white mice, oral, at infection and again 4 hours after, 72 hours, Reed-Muench, read-out: ED50 (dose effective to save 50% of the mice)
Procedure: as §1
2. Staphylococcus aureus (mouse infections)
The same methods as the previous test were used, except the compound concentrations were 400, 200, 100 and 50 mg/kg. The ED50 's appear in Table 2.

Pseud. aeruginosa = assay: In vitro minimum inhibitory concentration (MIC), tube dilution test; assay type: cell-based; details: Pseudomonas aeruginosa, 20 h, brain-heart infusion broth, 20hour incubation at 37° C., read-out: Minimal Inhibitory Test Conens. (MIC)
mice = assay: General pharmacology screen in mice; details: summary in words of Tables 3 and 4 (mice and rats)
Procedure: 17- to 24-hour fasted female white mice, 16-20 g. each, or rats, 70-90 g. each were dosed orally with test drug (or standard) at 0, 4, 12, 36, 108 or 324 mg./kg.
Ataxia--The mouse or rat was placed upright on the bench top facing away from the observer. Motor incoordination manifested by abnormal gait or lack of precision during purposive movements constituted ataxia.
Vertical Bar--The mouse or rat was swung by the tail with head pointing down to a 0.5" diameter (1" diameter for rats), 30.5 cm long vertical rod covered with adhesive tape. Inability to grip the rod with the front paws, sliding or failure to move after being prodded constituted vertical bar loss.
Body Temperature--The rectal temperatures of the mice and rats were taken using a KC-1 thermocouple probe.
Excitement and Irritability--Increased spontaneous motor activity, running and jumping prior to handling were recorded as excitement. Upon handling, jumping, jerking, biting and squeaking were recorded as irritability.
Anorexia--At the end of the 0.5 hour testing period, each mouse was transferred to an individual, clear, Lucite® compartment (13.3 cm×12.7 cm×12.7 cm) with a 0.64 cm×0.64 cm wire mesh floor. Inside each compartment there was a section of a black Lucite® bar [13 cm×1.2 cm×1.2 cm) with ten spot depressions (0.8 cm diameter) each containing 0.05 ml. of 50% sweetened condensed milk. 30 Minutes later the number of milk spots consumed was counted. 5 Mice per drug dose can drink a maximum of 50 spots (2.5 ml. of milk). 15 or fewer spots consumed by 5 mice constituted anorexia.

[1] = cited from earlier work; for undesirable side effects: Cox, Delaware Medical Journal, 1970
bacteria = details: Ronald et al., New England Journal of Medicine, 1966; cited from earlier work

O=C(O)c1cn(C(F)F)c2cc3c(cc2c1=O)OCO3 [DFMQ, 1-difluoromethyl-6,7-methylenedioxy-1,4-dihydro-4-oxo-3-quinolinecarboxylic acid]
MIC (Sal typhosa; 20 h): < 0.08 µg/mL
ED50 (Escherichia coli): 9.9 mg/kg
ED50 (Staphylococcus aureus): 149 mg/kg
MIC (Pseud. aeruginosa; Pseud. aeruginosa (11B)): 10 µg/mL (≈ 35.3 µM)
MIC (Pseud. aeruginosa; Pseud. aeruginosa (11C)): 2 µg/mL (≈ 7.06 µM)
MIC (Pseud. aeruginosa; Pseud. aeruginosa (11D)): 10 µg/mL (≈ 35.3 µM)
MIC (Pseud. aeruginosa; Pseud. aeruginosa (11G)): 10 µg/mL (≈ 35.3 µM)
MIC (Pseud. aeruginosa; Pseud. aeruginosa (11I)): 2 µg/mL (≈ 7.06 µM)
MIC (Pseud. aeruginosa; Pseud. aeruginosa (11J)): 10 µg/mL (≈ 35.3 µM)

CCn1cc(C(=O)O)c(=O)c2ccc(C)nc21 [Nalidixic Acid, nalidixic acid]
untoward effects in the general pharmacology screen (mice): produced some ataxia, and anorexia
MIC (Pseud. aeruginosa; Pseud. aeruginosa (11B)): > 10 µg/mL
MIC (Pseud. aeruginosa; Pseud. aeruginosa (11C)): > 10 µg/mL
MIC (Pseud. aeruginosa; Pseud. aeruginosa (11D)): > 10 µg/mL
MIC (Pseud. aeruginosa; Pseud. aeruginosa (11G)): > 10 µg/mL
MIC (Pseud. aeruginosa; Pseud. aeruginosa (11I)): > 10 µg/mL
MIC (Pseud. aeruginosa; Pseud. aeruginosa (11J)): > 10 µg/mL
undesirable side effects [1]: a relatively high incidence of side effects
bacterial resistance (bacteria): tendency to rapidly evoke bacterial resistance

CCn1cc(C(=O)O)c(=O)c2cc3c(cc21)OCO3 [Oxolinic Acid, oxolinic acid]
MIC (Sal typhosa; Sal typhosa (02D), brain-heart infusion broth, 20hour incubation at 37° C.): 0.4 µg/mL (≈ 1.53 µM)
untoward effects in the general pharmacology screen (mice): produced ataxia, anorexia, excitation, and irritability
MIC (Pseud. aeruginosa; Pseud. aeruginosa (11B)): 2 µg/mL (≈ 7.66 µM)
MIC (Pseud. aeruginosa; Pseud. aeruginosa (11C)): 2 µg/mL (≈ 7.66 µM)
MIC (Pseud. aeruginosa; Pseud. aeruginosa (11D)): 10 µg/mL (≈ 38.3 µM)
MIC (Pseud. aeruginosa; Pseud. aeruginosa (11G)): 10 µg/mL (≈ 38.3 µM)
MIC (Pseud. aeruginosa; Pseud. aeruginosa (11I)): 2 µg/mL (≈ 7.66 µM)
MIC (Pseud. aeruginosa; Pseud. aeruginosa (11J)): 2 µg/mL (≈ 7.66 µM)
undesirable side effects [1]: a high incidence of undesirable side effects
toxicity, use in therapy of urinary tract infections ([1]; Kershaw and Leigh, 1975): because of toxicity, "it should not be used as a first-line drug in the therapy of urinary tract infections."
